*1 amine or outer side, *2 acyl side, *3 side chain or, on linkers, in order; H or OH if unused. Where a SMILES comes first, the peptide text is derived from it. Bridges are numbered along the chain shown (N, C = ends). [ ]: non-standard residue; d: D form. ξ: configuration not given here. Phe(3,4,5-F3) = N[C@@H](Cc1cc(F)c(F)c(F)c1)C(=O)O; Phe(3,4-F2) = N[C@@H](Cc1ccc(F)c(F)c1)C(=O)O; NMePhe(4-F) = CN[C@@H](Cc1ccc(F)cc1)C(=O)O; Phe(4-F) = N[C@@H](Cc1ccc(F)cc1)C(=O)O; 1Nal = N[C@@H](Cc1cccc2ccccc12)C(=O)O; d(cisHyp) = O=C(O)[C@H]1C[C@@H](O)CN1; Bta = N[C@@H](Cc1csc2ccccc12)C(=O)O; NMeY = CN[C@@H](Cc1ccc(O)cc1)C(=O)O; Hyp = O=C(O)[C@@H]1C[C@@H](O)CN1; NMeF = CN[C@@H](Cc1ccccc1)C(=O)O; X1 = O=C([C@H]1COCCN1[*:1])[*:2]; dNMeF = CN[C@H](Cc1ccccc1)C(=O)O; dHyp = O=C(O)[C@H]1C[C@H](O)CN1; NMehSer = CN[C@@H](CCO)C(=O)O; NMeNle = CCCC[C@H](NC)C(=O)O; dPip = O=C(O)[C@H]1CCCCN1; hSer = N[C@@H](CCO)C(=O)O; NMeA = CN[C@@H](C)C(=O)O; Orn = NCCC[C@H](N)C(=O)O; dThz = O=C(O)[C@H]1CSCN1; Dab = NCC[C@H](N)C(=O)O; Dap = NC[C@H](N)C(=O)O; ξC = NC(CS)C(=O)O; Sar = CNCC(=O)O

The target of this test is T1, Human PD-L1/PD-1 (Homo sapiens, UniProt Q9NZQ7).
T1 construct: TVMV protease cleavage site (C); made in house; host or cells: HEK293T cells
T1 sequence (Q9NZQ7 with tags, fused parts or gaps): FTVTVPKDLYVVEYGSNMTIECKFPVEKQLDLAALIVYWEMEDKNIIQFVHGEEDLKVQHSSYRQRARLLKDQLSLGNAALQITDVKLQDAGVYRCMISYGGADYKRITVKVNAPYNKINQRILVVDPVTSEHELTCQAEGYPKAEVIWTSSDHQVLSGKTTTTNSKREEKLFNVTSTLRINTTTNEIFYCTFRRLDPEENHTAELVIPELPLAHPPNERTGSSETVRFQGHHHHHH
The test is described as follows: HTRF Human PD-L1/PD-1 binding assay (PD-1-Ig/PD-L1-His). To be noted: PD-L1-His 10 nM, PD-1-Ig 20 nM; class symbol; read-out: HTRF Human PD-L1/PD-1 Binding Assay IC50 Range. The method, boiled down:
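Truncated Fc-fused human PD-1 (aa 25-167) at 20 nM and His-tagged PD-L1 (aa 18-239) at 10 nM final are used, with peptides preincubated 15 min with PD-L1. Detection uses europium-cryptate anti-Ig and APC anti-His antibodies; 665/620 nm ratio.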
A general note: TR-FRET usually uses a lanthanide donor and a delayed reading to cut background.

For the compound `CCCC[C@H]1C(=O)N(C)[C@@H](CCCC)C(=O)N[C@@H](CCC(=O)O)C(=O)N[C@H](C(=O)NCC(N)=O)CSCC(=O)N[C@@H](Cc2ccc(OC)cc2)C(=O)N(C)[C@@H](C)C(=O)N[C@@H](CC(N)=O)C(=O)N2CCC[C@H]2C(=O)N[C@@H](CN)C(=O)N[C@@H](CCCCN)C(=O)N2C[C@H](O)C[C@H]2C(=O)N[C@@H](Cc2c[nH]c3ccccc23)C(=O)N[C@@H](CCN)C(=O)N[C@@H](Cc2c[nH]c3ccccc23)C(=O)N1C` [Example 7121] ({CH2CO}-Y(Me)[NMeA]NP[Dap]K[Hyp]W[Dab]W[NMeNle][NMeNle]ECG-NH2; thioether N-14), the IC50 lay in the range of 1 to 9.9 nM. On to `CCCC[C@H]1C(=O)N2C[C@H](O)C[C@@H]2C(=O)N[C@@H](CC(=O)O)C(=O)N[C@@H](C(C)C)C(=O)N(C)[C@H](Cc2ccccc2)C(=O)N[C@@H](CCCN)C(=O)N2C[C@H](O)C[C@@H]2C(=O)N[C@@H](Cc2c[nH]c3ccccc23)C(=O)N[C@@H](Cc2ccc(O)cc2)C(=O)N[C@@H](CC(C)C)C(=O)N[C@H](C(=O)NCC(N)=O)CSCC(=O)N[C@@H](Cc2ccc(F)c(F)c2)C(=O)N(C)[C@@H](Cc2ccccc2)C(=O)N1C` [Example 9297] ({CH2CO}-[Phe(3,4-F2)][NMeF][NMeNle][d(cisHyp)]DV[dNMeF][Orn][d(cisHyp)]WYLCG-NH2; thioether N-13), for which the IC50 was 1 to 9.9 nM.

Regarding `COCC[C@H]1C(=O)N2C[C@@H](O)C[C@@H]2C(=O)N[C@@H](CC(=O)O)C(=O)N[C@@H](C(C)C)C(=O)N(C)[C@@H](Cc2ccccc2)C(=O)N[C@@H](Cc2ccc(O)cc2)C(=O)N2CCOC[C@@H]2C(=O)N[C@@H](Cc2c[nH]c3ccccc23)C(=O)N[C@@H](Cc2ccc(O)cc2)C(=O)N[C@@H](CC(C)C)C(=O)N[C@H](C(=O)NCC(N)=O)CSCC(=O)N[C@@H](Cc2cc(F)c(F)c(F)c2)C(=O)N(C)[C@@H](Cc2ccccc2)C(=O)N1C` [Example 9264] ({CH2CO}-[Phe(3,4,5-F3)][NMeF][NMehSer](Me)[dHyp]DV[NMeF]Y[X1]WYLCG-NH2; thioether N-13), the IC50 fell in the range of 1 to 9.9 nM.

Turning to `CCCC[C@H]1C(=O)N2C[C@@H](O)C[C@@H]2C(=O)N[C@@H](CC(=O)O)C(=O)N[C@@H](C(C)C)C(=O)N(C)[C@@H](Cc2ccccc2)C(=O)N[C@@H](Cc2ccc(O)cc2)C(=O)N2C[C@H](O)C[C@@H]2C(=O)N[C@@H](Cc2c[nH]c3ccccc23)C(=O)N[C@@H](Cc2ccc(O)cc2)C(=O)N[C@@H](CCCN)C(=O)N[C@H](C(=O)NCC(N)=O)CSCC(=O)N[C@@H](Cc2cc(F)c(F)c(F)c2)C(=O)N(C)[C@@H](Cc2ccccc2)C(=O)N1C` [Example 9368] ({CH2CO}-[Phe(3,4,5-F3)][NMeF][NMeNle][dHyp]DV[NMeF]Y[d(cisHyp)]WY[Orn]CG-NH2; thioether N-13), the IC50 lay within 1 to 9.9 nM. `CCCC[C@H]1C(=O)N(C)[C@@H](CCCC)C(=O)N[C@@H](CN)C(=O)N[C@H](C(N)=O)CSCC(=O)N[C@@H](Cc2ccc(O)cc2)C(=O)N(C)[C@@H](C)C(=O)N[C@@H](CC(N)=O)C(=O)N2CCC[C@H]2C(=O)N[C@@H](CN)C(=O)N[C@@H](CC(C)C)C(=O)N2C[C@H](O)C[C@H]2C(=O)N[C@@H](Cc2c[nH]c3ccccc23)C(=O)N[C@@H](CO)C(=O)N[C@@H](Cc2cn(CC(=O)O)c3ccccc23)C(=O)N1C` [Example 6140]: the IC50 is 1 to 9.9 nM. Turning to `CCCC[C@H]1C(=O)N2C[C@H](O)C[C@@H]2C(=O)N[C@@H](CC(=O)O)C(=O)N[C@@H](C(C)C)C(=O)N(C)[C@@H](Cc2ccccc2)C(=O)N[C@@H](CC(=O)O)C(=O)N2CSC[C@@H]2C(=O)N[C@@H](Cc2c[nH]c3ccccc23)C(=O)N[C@@H](Cc2ccc(O)cc2)C(=O)N[C@@H](CCO)C(=O)N[C@H](C(=O)NCC(N)=O)CSCC(=O)N[C@@H](Cc2cc(F)c(F)c(F)c2)C(=O)N(C)[C@@H](Cc2ccccc2)C(=O)N1C` [Example 10151] ({CH2CO}-[Phe(3,4,5-F3)][NMeF][NMeNle][d(cisHyp)]DV[NMeF]D[dThz]WY[hSer]CG-NH2; thioether N-13), the IC50 was in the range of 1 to 9.9 nM.

Consider `CCCC[C@H]1C(=O)N(C)[C@@H](CCCC)C(=O)N[C@@H](CCC(=O)O)C(=O)N[C@H](C(=O)NCC(N)=O)CSCC(=O)N[C@@H](Cc2ccc(O)cc2)C(=O)N(C)[C@@H](C)C(=O)N[C@@H](CC(N)=O)C(=O)N2CCC[C@H]2C(=O)N[C@@H](Cc2c[nH]cn2)C(=O)N[C@@H](CCC(=O)O)C(=O)N2C[C@H](O)C[C@H]2C(=O)N[C@@H](Cc2c[nH]c3ccccc23)C(=O)N[C@@H](CCN)C(=O)N[C@@H](Cc2c[nH]c3ccccc23)C(=O)N1C` [Example 5190] ({CH2CO}-Y[NMeA]NPHE[Hyp]W[Dab]W[NMeNle][NMeNle]ECG-NH2; thioether N-14), for which the IC50 lay within 1 to 9.9 nM. As for `CCCC[C@H]1C(=O)N2CCC[C@@H]2C(=O)N[C@@H](CC(=O)O)C(=O)N[C@@H](C(C)C)C(=O)N(C)[C@@H](Cc2ccccc2)C(=O)N[C@@H](CCC(=O)O)C(=O)N2C[C@H](O)C[C@@H]2C(=O)N[C@@H](Cc2c[nH]c3ccccc23)C(=O)N[C@@H](Cc2ccc(O)cc2)C(=O)N[C@@H](CCC(N)=O)C(=O)N[C@H](C(=O)NCC(N)=O)CSCC(=O)N[C@@H](Cc2cc(F)c(F)c(F)c2)C(=O)N(C)[C@@H](Cc2ccc(O)cc2)C(=O)N1C` [Example 10631] ({CH2CO}-[Phe(3,4,5-F3)][NMeY][NMeNle][dP]DV[NMeF]E[d(cisHyp)]WYQCG-NH2; thioether N-13), the IC50 is 10 to 99.9 nM.

As for `CCCC[C@H]1C(=O)N2C[C@H](O)C[C@@H]2C(=O)N[C@@H](CC(=O)O)C(=O)N[C@@H](C(C)C)C(=O)N(C)[C@@H](Cc2ccccc2)C(=O)N[C@@H](CC(=O)O)C(=O)N2C[C@H](O)C[C@@H]2C(=O)N[C@@H](Cc2c[nH]c3ccccc23)C(=O)N[C@@H](Cc2ccc(O)cc2)C(=O)N[C@@H](CC(N)=O)C(=O)N[C@H](C(=O)NCC(N)=O)CSCC(=O)N[C@@H](Cc2cc(F)c(F)c(F)c2)C(=O)N(C)[C@@H](Cc2ccccc2)C(=O)N1C` [Example 9352] ({CH2CO}-[Phe(3,4,5-F3)][NMeF][NMeNle][d(cisHyp)]DV[NMeF]D[d(cisHyp)]WYNCG-NH2; thioether N-13), the IC50 fell in the range of 1 to 9.9 nM. On to `CCCC[C@H]1C(=O)N2CCC[C@@H]2C(=O)N[C@@H](CC(=O)O)C(=O)N[C@@H](C(C)C)C(=O)N(C)[C@@H](Cc2ccc(F)cc2)C(=O)N[C@@H](CCN)C(=O)N2CCC[C@@H]2C(=O)N[C@@H](Cc2c[nH]c3ccccc23)C(=O)N[C@@H](Cc2ccc(O)cc2)C(=O)N[C@@H](CC(C)C)C(=O)N[C@H](C(=O)NCC(N)=O)CSCC(=O)N[C@@H](Cc2ccc(F)cc2)C(=O)N(C)[C@@H](Cc2ccccc2)C(=O)N1C` [Example 10109] ({CH2CO}-[Phe(4-F)][NMeF][NMeNle][dP]DV[NMePhe(4-F)][Dab][dP]WYLCG-NH2; thioether N-13), for which the IC50 fell in the range of 10 to 99.9 nM.

With `CCCC[C@H]1C(=O)N2CCC[C@@H]2C(=O)N[C@@H](CC(=O)O)C(=O)N[C@@H](C(C)C)C(=O)N(C)[C@@H](Cc2ccccc2)C(=O)N[C@@H](Cc2ccc(O)cc2)C(=O)N2CCC[C@@H]2C(=O)N[C@@H](Cc2c[nH]c3ccccc23)C(=O)N[C@@H](Cc2ccc(O)cc2)C(=O)N[C@@H](CCCN)C(=O)N[C@H](C(=O)NCC(N)=O)CSCC(=O)N[C@@H](Cc2cc(F)c(F)c(F)c2)C(=O)N(C)[C@@H](Cc2ccccc2)C(=O)N1C` [Example 10098] ({CH2CO}-[Phe(3,4,5-F3)][NMeF][NMeNle][dP]DV[NMeF]Y[dP]WY[Orn]CG-NH2; thioether N-13), the IC50 lay in the range of 1 to 9.9 nM. With `CCCC[C@H]1C(=O)N2CCC[C@@H]2C(=O)N[C@@H](CC(=O)O)C(=O)N[C@@H](C(C)C)C(=O)N(C)[C@@H](CCOC)C(=O)N[C@@H](Cc2ccc(O)cc2)C(=O)N2CCCC[C@@H]2C(=O)N[C@@H](Cc2c[nH]c3ccccc23)C(=O)N[C@@H](Cc2ccc(O)cc2)C(=O)N[C@@H](CC(C)C)C(=O)N[C@H](C(=O)NCC(N)=O)CSCC(=O)N[C@@H](Cc2ccc(F)cc2)C(=O)N(C)[C@@H](Cc2ccccc2)C(=O)N1C` [Example 9220] ({CH2CO}-[Phe(4-F)][NMeF][NMeNle][dP]DV[NMehSer](Me)Y[dPip]WYLCG-NH2; thioether N-13), the IC50 fell in the range of 100 to 990 nM. Consider `CCCC[C@H]1C(=O)N(C)[C@@H](CCCC)C(=O)N[C@@H](C)C(=O)N[C@H](C(=O)NCC(N)=O)CSCC(=O)N[C@@H](Cc2ccc(O)cc2)C(=O)N(C)[C@@H](C)C(=O)N[C@@H](CC(N)=O)C(=O)N2CCC[C@H]2C(=O)N[C@@H](Cc2cnc[nH]2)C(=O)N[C@@H](CCC(N)=O)C(=O)N2C[C@H](O)C[C@H]2C(=O)N[C@@H](Cc2c[nH]c3ccccc23)C(=O)N[C@@H](CO)C(=O)N[C@@H](Cc2cccc3ccccc23)C(=O)N1C` [Example 1289] ({CH2CO}-Y[NMeA]NPHQ[Hyp]WS[1Nal][NMeNle][NMeNle]ACG-NH2; thioether N-14), for which the IC50 lay within 1 to 9.9 nM. Take `CCCC[C@H]1C(=O)N(C)CC(=O)N[C@@H](CC(=O)O)C(=O)N[C@@H](C)C(=O)N(C)[C@@H](Cc2ccccc2)C(=O)N[C@@H](Cc2ccc(O)cc2)C(=O)N2CCCC[C@@H]2C(=O)N[C@@H](Cc2c[nH]c3ccccc23)C(=O)N[C@@H](Cc2ccc(O)cc2)C(=O)N[C@@H](CC(C)C)C(=O)N[C@H](C(=O)NCC(N)=O)CSCC(=O)N[C@@H](Cc2ccccc2)C(=O)N(C)[C@@H](Cc2ccccc2)C(=O)N1C` [Example 10081] ({CH2CO}-F[NMeF][NMeNle][Sar]DA[NMeF]Y[dPip]WYLCG-NH2; thioether N-13): the IC50 was in the range of 10 to 99.9 nM. On to `CCCC[C@H]1C(=O)N(C)[C@@H](CCCC)C(=O)N[C@@H](CCCNC(=N)N)C(=O)NC(C(=O)NCC(N)=O)CSCC(=O)N[C@@H](Cc2ccc(O)cc2)C(=O)N(C)[C@@H](C)C(=O)N[C@@H](CC(N)=O)C(=O)N2CCC[C@H]2C(=O)N[C@@H](CO)C(=O)N[C@@H](CCO)C(=O)N2CCC[C@H]2C(=O)N[C@@H](Cc2c[nH]c3ccccc23)C(=O)N[C@@H](CO)C(=O)N[C@@H](Cc2csc3ccccc23)C(=O)N1C` (stereo partly drawn) [Example 10025] ({CH2CO}-Y[NMeA]NPS[hSer]PWS[Bta][NMeNle][NMeNle]R[ξC]G-NH2; thioether N-14), for which the IC50 was 1 to 9.9 nM.

The record behind these values is patent US10538555B2, “Macrocyclic inhibitors of the PD-1/PD-L1 and CD80(B7-1)/PD-L1 protein/protein interactions” (BRISTOL-MYERS SQUIBB COMPANY, priority 2014, dated 2020).
